Reference: US8748497B2, “Optimized fluorocarbon emulsions for blood substitutes and other therapeutic uses” (Alliance Pharmaceutical Corp., priority 2006, dated 2014)
Where two headings read alike, the source gives them in different places.

Legend:
[1] = pharmacokinetics in subjects undergoing CABG surgery with hypothermic CPB; assay type: in vivo, human; details: human, whole blood, other: directly into the bypass oxygenator, 2.7 g PFC/kg
Protocol: The pharmacokinetics of PFOB and PFDB were determined after the administration of the fluorocarbon formulation taught in Example VI to human subjects undergoing coronary artery bypass grafting or CABG surgery with hypothermic cardiopulmonary bypass. In group 1 and in group 2, human subjects received the fluorocarbon emulsion (2.7 g PFC/kg) as taught in Example VI directly into the bypass oxygenator after being put on bypass but before cooling was begun. In group 4, subjects received 2.7 g PFC/kg of the fluorocarbon emulsion of Example VI directly into the bypass oxygenator either prior to aortic cannulation or after being put on bypass, but before cooling was begun.

[2] = pharmacokinetics in blood after single intravenous administration of the emulsion of Ex. VI; assay type: in vivo, Sprague Dawley rats; details: for MRT last / half-life: Sprague-Dawley, rat; for MRT last: read-out: MRT(0-last); for Vd: terminal phase; for half-life: iv, read-out: T1/2 (converted)
From the text: (§1) This study was designed to assess the pharmokinetics and tissue distribution of PFOB and PFDB following a single intravenous administration of the emulsion of Ex. VI at various time intervals at dose levels of 1.8 and 3.6 g PFC/k in male and female Sprague Daley rats, aged 7-9 weeks, weight between 190-267 grams. For pharmacokinetics, 160 rats were divided into 20 groups (N=4 rats/sex/dose/time interval) and for tissue distribution, 156 rats were divided into 26 groups (n=3 rats/sex/dose/time interval). The time intervals for pharmacokinetics blood sampling were 0.083, 0.5, 1, 3, 6, 12, 36, 48, 72 and 96 hours. The time intervals for tissue sampling was predose, 24 hours, 1, 2, 4, 8, 13, 17, 21, 26, 39, 52 and 72 weeks.
Six pharmacokinetic parameters were determined following a single intravenous dose of 1.8 gPFC/kg or 3.6 g PFC/kg in both the male and female rats as shown in the tables below.

[3] = in vivo; cited from earlier work
[4] = pharmacokinetics in subjects undergoing noncardiac surgical procedures; assay type: in vivo, human; details: human, whole blood, noncardiac surgery; for clearance: read-out: CL (whole blood clearance) (converted); for Cmax: read-out: Cmax (maximum whole blood concentration); for half-life: read-out: T1/2 (elimination half-life) (converted)
Protocol: The pharmacokinetics of PFOB and PFDB were determined after the administration of the fluorocarbon emulsion of Example VI to subjects undergoing total hip replacement or spinal surgery or a variety of urologic and gynaecologic procedures including radical retropubic prostatectomy, radical hysterectomy, cystectomy and combined procedures. Human subjects in one study received either 0.9 g PFC/kg or 1.8 g PFC/kg of the fluorocarbon formulation of Example VI and those in a second study received 1.8 g PFC/kg of the fluorocarbon formulation of Example VI.

[5] = tissue distribution after single intravenous administration of the emulsion of Ex. VI, GC headspace; assay type: in vivo, Sprague Dawley rats
From the text: as §1
26 groups (N=3 rats/sex/group). Prior to euthanasia, body weights were recorded. At designated times (see below), rats were anesthetized with METOFANE® and esanguinated via the abdominal artery. Blood was collected into syringes containing EDTA and transferred into sealed plastic containers for storage at approximately −20° C. until analyzed. Resultant data were included in the determination of pharmacokinetic parameters. The following tissues were collected from each rat and placed in sealed containers and stored frozen at −20° C. Prior to freezing, blood and tissue samples were processed for analysis. PFOB and PFDB were quantified in blood and tissues using a GC headspace method validated by Oread. The method was validated in the liver and then cross validated to all other tissues, blood, and serum. The tissues collected and analyzed include heart, lungs, abdominal fat, spleen, liver, mesenteric lymph nodes, kidneys, adrenals, testes, ovaries, uterus, whole brain, eyes, skeletal muscle, femoral bone marrow, and gastrointestinal tract.
The concentration of PFOB and PFDB was determined in the tissues in both sexes at 12 time points. For the males, this was a total of 360 individual results including blood. There were 24 additional results for the female.

[6] = Phase 1 pharmacokinetics in healthy human volunteers; assay type: in vivo; details: for AUC(0-t) / half-life / Cmax: human, blood; for AUC(0-t) / half-life: intravenous; for AUC(0-t): read-out: AUC (0-336); for half-life: read-out: t1/2. 12 h (initial elimination half-life within the first 12 h post dose) (converted); for Cmax: iv, healthy volunteers
Protocol: Two randomised, controlled, double-blind, parallel group, Phase 1 studies were conducted in healthy human patients with the fluorocarbon emulsion made according to Example VI. Blood and expired air samples were analysed for PFOB and PFDB after a single intravenous dose of 1.2 or 1.8 g PFC/kg of the fluorocarbon emulsion of Example VI in healthy human volunteers to determine pharmacokinetics. Blood samples were collected up to 336 hours post-dosing.

[7] = female rats, 1.8 g PFC/kg single iv, blood
[8] = female rats, 3.6 g PFC/kg single iv, blood
[9] = male rats, 1.8 g PFC/kg single iv, blood
[10] = male rats, 3.6 g PFC/kg single iv, blood
[11] = female rats, 1.8 g PFC/kg, 24 hours
[12] = female rats, 3.6 g PFC/kg, 24 hours
[13] = male rats, 1.8 g PFC/kg, 24 hours
[14] = 1.2 g PFC/kg, Table VII, 1.2 g PFC/kg
[15] = 1.2 g PFC/kg, Table VIII, 1.2 g PFC/kg
[16] = 1.8 g PFC/kg, Table VII, 1.8 g PFC/kg
[17] = 1.8 g PFC/kg, Table VIII, 1.8 g PFC/kg

AUC(0-inf) [1]: 16200 µg·h/mL | clearance ([1]; read-out: CL (whole blood clearance) (converted)): 0.113 mL/min/kg | Cmax ([1]; read-out: Cmax (maximum whole blood concentration)): 1030 µg/mL | half-life ([1]; read-out: T1/2 (elimination half-life) (converted)): 10.8 ± 4.46 h | MRT last ([2]; 1.8 g/kg, female rats, 1.8 g PFC/kg single iv, blood): 113 h | MRT last ([2]; 1.8 g/kg, male rats, 1.8 g PFC/kg single iv, blood): 332 h | MRT last ([2]; 3.6 g/kg, female rats, 3.6 g PFC/kg single iv, blood): 438 h | MRT last ([2]; 3.6 g/kg, male rats, 3.6 g PFC/kg single iv, blood): 485 h | AUC(o-last) [2, 7]: 6.86 mg·h/g | AUC(o-∞) [2, 7]: 7.54 mg·h/g | Cl [2, 7]: 238.76 g/h/kg | T1/2 ([2]; female rats, 1.8 g PFC/kg single iv, blood, last 3 or 4 data points): 199.851 days | Vd ([2]; female rats, 1.8 g PFC/kg single iv): 1652163 g/kg | AUC(o-last) [2, 8]: 21.99 mg·h/g | AUC(o-∞) [2, 8]: 22.87 mg·h/g | Cl [2, 8]: 157.39 g/h/kg | Vd ([2]; female rats, 3.6 g PFC/kg single iv): 1728719 g/kg | half-life ([2]; female, blood, 1.8 g/kg, female rats, 1.8 g PFC/kg single iv, blood, last 3 or 4 data points): ~200 days | half-life ([2]; female, blood, 3.6 g/kg, female rats, 3.6 g PFC/kg single iv, blood, last 3 or 4 data points): ~317 days | AUC(o-last) [2, 9]: 6.88 mg·h/g | AUC(o-∞) [2, 9]: 10.65 mg·h/g | Cl [2, 9]: 169.05 g/h/kg | Vd ([2]; male rats, 1.8 g PFC/kg single iv): 6128576 g/kg | AUC(o-last) [2, 10]: 24.67 mg·h/g | AUC(o-∞) [2, 10]: 27.62 mg·h/g | Cl [2, 10]: 130.34 g/h/kg | Vd ([2]; male rats, 3.6 g PFC/kg single iv): 2359442 g/kg | half-life ([2]; male, blood, 1.8 g/kg, male rats, 1.8 g PFC/kg single iv, blood, last 3 or 4 data points): ~1050 days | half-life ([2]; male, blood, 3.6 g/kg, male rats, 3.6 g PFC/kg single iv, blood, last 3 or 4 data points): ~523 days | AUC(0-inf) ([4]; 0.9 g PFC/kg): 736 ± 483 µg·h/mL | clearance ([4]; 0.9 g PFC/kg): 0.973 mL/min/kg | Cmax ([4]; 0.9 g PFC/kg): 284 ± 92.7 µg/mL | half-life ([4]; 0.9 g PFC/kg): 2.73 ± 1.32 h | AUC(0-inf) ([4]; 1.8 g PFC/kg): 2950 µg·h/mL | clearance ([4]; 1.8 g PFC/kg): 0.595 mL/min/kg | Cmax ([4]; 1.8 g PFC/kg): 620 ± 158 µg/mL | half-life ([4]; 1.8 g PFC/kg): 5.56 ± 4.81 h | concentration in the spleen and liver ([5]; 24 hours, males 1.8 g PFC/kg): above 1 mg/g | concentration at 24 h ([5]; Sprague-Dawley, rat, intravenous, 24 hr, all tissues, both sexes and both doses, read-out: absolute concentration in tissues): > 1000 ng/g | percent of dose in liver [5, 11]: ~86% | percent of dose in spleen [5, 11]: approximately 14% | percent of dose in liver [5, 12]: approximately 62% | percent of dose in spleen [5, 12]: approximately 8% | concentration in the lymph nodes, spleen, liver and bone marrow ([5]; females 3.6 g PFC/kg): above 1 mg/g | percent of dose in liver [5, 13]: ~85% | percent of dose in spleen [5, 13]: approximately 15% | percent of dose in spleen ([5]; male rats, 3.6 g PFC/kg): approximately 11% | percent of dose in liver ([5]; male rats, 3.6 g PFC/kg, 24 hours): ~69% | concentration in the spleen, liver, and bone marrow ([5]; males 3.6 PFC/kg): above 1 mg/g | t1/2. 12 h (initial elimination half-life within the first 12 h post dose) ([6]; Table VIII, 1.2 g PFC/kg): 13.6 h | AUC(0-t) [6, 14]: 6640 µg·h/mL | half-life [6, 14]: 13.7 ± 3.6 h | AUC(0-t) [6, 15]: 4630 µg·h/mL | half-life [6, 15]: 7.35 h | AUC(0-t) [6, 16]: 16300 µg·h/mL | half-life [6, 16]: 18.7 h | AUC(0-t) [6, 17]: 11200 µg·h/mL | half-life [6, 17]: 12.6 h | Cmax ([6]; 1.2 g PFC/kg, Table VII, 1.2 g PFC/kg single iv): 540 ± 125 µg/mL | Cmax ([6]; 1.2 g PFC/kg, Table VIII, 1.2 g PFC/kg single iv): 670 ± 420 µg/mL | Cmax ([6]; 1.8 g PFC/kg, Table VII, 1.8 g PFC/kg single iv): 978 ± 499 µg/mL | Cmax ([6]; 1.8 g PFC/kg, Table VIII, 1.8 g PFC/kg single iv): 884 ± 196 µg/mL
SMILES: FC(F)(F)C(F)(F)C(F)(F)C(F)(F)C(F)(F)C(F)(F)C(F)(F)C(F)(F)C(F)(F)C(F)(F)Br [PFDB, perfluorodecyl bromide]
half-life in the RES [3]: 552 h
